In the NIST ThermoML archive (doi:10.1016/j.jct.2018.12.036) one finds surface tension liquid-gas data, which are given here for three molecules.

For the data set the following is noted: Plate method.

± gives the expanded uncertainty stated by the source.

On to `CCCC[n+]1ccn(C)c1.O=S(=O)([N-]S(=O)(=O)C(F)(F)F)C(F)(F)F`, for which the surface tension liquid-gas (in general, the force per length acting along the surface) by setting is: (293.15 K) 33.29 ± 0.43 mN/m; (298.15 K) 33.07 ± 0.43 mN/m; (303.15 K) 32.88 ± 0.43 mN/m; (308.15 K) 32.67 ± 0.43 mN/m; (313.15 K) 32.49 ± 0.43 mN/m; (318.15 K) 32.29 ± 0.43 mN/m. Moreover, the surface tension liquid-gas (323.15 K) is reported as 32.11 ± 0.43 mN/m.

For `CCCCn1cc[n+](C)c1.F[P-](F)(F)(F)(F)F` [1-butyl-3-methylimidazolium hexafluorophosphate], the surface tension liquid-gas is 44.56 ± 0.46 mN/m (293.15 K); 44.32 ± 0.46 mN/m (298.15 K); 44.11 ± 0.46 mN/m (303.15 K); 43.88 ± 0.46 mN/m (308.15 K); 43.63 ± 0.46 mN/m (313.15 K); 43.42 ± 0.46 mN/m (318.15 K). Besides, the surface tension liquid-gas (323.15 K) was determined as 43.18 ± 0.45 mN/m.

Regarding `CCCCn1cc[n+](C)c1.F[B-](F)(F)F` [1-butyl-3-methylimidazolium tetrafluoroborate], the surface tension liquid-gas worked out at 44.75 ± 0.46 mN/m (293.15 K); 44.52 ± 0.46 mN/m (298.15 K); 44.16 ± 0.46 mN/m (303.15 K); 43.95 ± 0.46 mN/m (308.15 K); 43.63 ± 0.46 mN/m (313.15 K); 43.34 ± 0.46 mN/m (318.15 K). Besides, the surface tension liquid-gas (323.15 K) came out at 42.98 ± 0.45 mN/m.
